Consider 7 compounds from PubChem BioAssay AID1259407 (Chemical Carcinogenesis Research Information System (CCRIS), 2018).

Calls of active or inactive are those of the source. How the calls were made is not given here.

The data set relates to CCRIS mutagenicity, Ames/micronucleus/aberration tests. The data set can be described thus: CCRIS mutagenicity studies.
Setting [1] is: Test System: AMES SALMONELLA TYPHIMURIUM, Strain/Indicator: TA98, Metabolic Activation: NONE, Method: STANDARD PLATE.
The mark [2] stands for this setting: Test System: AMES SALMONELLA TYPHIMURIUM, Strain/Indicator: TA98, Metabolic Activation: RAT, LIVER, S-9, AROCLOR 1254, Method: STANDARD PLATE.
Setting [3] is: Test System: AMES SALMONELLA TYPHIMURIUM, Strain/Indicator: TA100, Metabolic Activation: NONE, Method: STANDARD PLATE.
Setting [4] is: Test System: AMES SALMONELLA TYPHIMURIUM, Strain/Indicator: TA100, Metabolic Activation: RAT, LIVER, S-9, AROCLOR 1254, Method: STANDARD PLATE.
Setting [5] is: Test System: AMES SALMONELLA TYPHIMURIUM, Strain/Indicator: TA1535, Metabolic Activation: NONE, Method: STANDARD PLATE.
[6] abbreviates: Test System: AMES SALMONELLA TYPHIMURIUM, Strain/Indicator: TA1535, Metabolic Activation: RAT, LIVER, S-9, AROCLOR 1254, Method: STANDARD PLATE.
The mark [7] stands for this setting: Test System: AMES SALMONELLA TYPHIMURIUM, Strain/Indicator: TA1537, Metabolic Activation: NONE, Method: STANDARD PLATE.
[8] abbreviates: Test System: AMES SALMONELLA TYPHIMURIUM, Strain/Indicator: TA1537, Metabolic Activation: RAT, LIVER, S-9, AROCLOR 1254, Method: STANDARD PLATE.
[9] abbreviates: Test System: AMES SALMONELLA TYPHIMURIUM, Strain/Indicator: TA1538, Metabolic Activation: NONE, Method: STANDARD PLATE.
The mark [10] stands for this setting: Test System: AMES SALMONELLA TYPHIMURIUM, Strain/Indicator: TA1538, Metabolic Activation: RAT, LIVER, S-9, AROCLOR 1254, Method: STANDARD PLATE.
Setting [11] is: Test System: AMES SALMONELLA TYPHIMURIUM, Strain/Indicator: TA100, Metabolic Activation: NONE, Method: PREINCUBATION
Setting [12] is: Test System: AMES SALMONELLA TYPHIMURIUM, Strain/Indicator: TA1535, Metabolic Activation: NONE, Method: PREINCUBATION

`NCCCC[C@H](N[C@@H](CCc1ccccc1)C(=O)O)C(=O)N1CCC[C@H]1C(=O)O`: the mutagenic call runs as follows: under setting [1], “inactive; negative”; under setting [2], “inactive; negative”; under setting [3], “inactive; negative”; under setting [4], “inactive; negative”; under setting [5], “inactive; negative”; under setting [6], “inactive; negative”. The mutagenic call was “inactive; negative” under setting [7]; “inactive; negative” under setting [8]; “inactive; negative” under setting [9]; “inactive; negative” under setting [10]; “inactive; negative” (Test System: E. COLI, Strain/Indicator: WP2, Metabolic Activation: NONE, Method: STANDARD PLATE); “inactive; negative” (Test System: E. COLI, Strain/Indicator: WP2, Metabolic Activation: RAT, LIVER, S-9, AROCLOR 1254, Method: STANDARD PLATE). Besides, the mutagenic call runs as follows: (Test System: E. COLI, Strain/Indicator: WP2 UVRA, Metabolic Activation: NONE, Method: STANDARD PLATE) “inactive; negative”; (Test System: E. COLI, Strain/Indicator: WP2 UVRA, Metabolic Activation: RAT, LIVER, S-9, AROCLOR 1254, Method: STANDARD PLATE) “inactive; negative”.

Turning to `N#Cc1ccc(CCl)cc1`, the mutagenic call under setting [3] was “inactive; negative”.

Consider `CCCN(N=O)/C(N)=N/[N+](=O)[O-]`, for which the mutagenic call is, setting by setting: under setting [11], “active; positive”; (Test System: AMES SALMONELLA TYPHIMURIUM, Strain/Indicator: TA100, Metabolic Activation: RAT, LIVER, S-9, KC500 OR PHENOBARBITAL, Method: LIQUID SUSPENSION) “active; positive”; under setting [12], “active; positive”; under setting [5], “active; positive”; (Test System: AMES SALMONELLA TYPHIMURIUM, Strain/Indicator: TA1535, Metabolic Activation: RAT, LIVER, S-9, KC500 OR PHENOBARBITAL, Method: LIQUID SUSPENSION) “active; positive”; (Test System: AMES SALMONELLA TYPHIMURIUM, Strain/Indicator: YG7104, Metabolic Activation: NONE, Method: PREINCUBATION) “active; positive”. Besides, the mutagenic call is, setting by setting: (Test System: AMES SALMONELLA TYPHIMURIUM, Strain/Indicator: YG7108, Metabolic Activation: NONE, Method: PREINCUBATION) “active; positive”; (Test System: AMES SALMONELLA TYPHIMURIUM, Strain/Indicator: YG7112, Metabolic Activation: NONE, Method: PREINCUBATION) “active; positive”; (Test System: AMES SALMONELLA TYPHIMURIUM, Strain/Indicator: YG7113, Metabolic Activation: NONE, Method: PREINCUBATION) “active; positive”.

As to `c1ccc2[nH]cnc2c1`, the mutagenic call is “inactive; negative” (Test System: AMES SALMONELLA TYPHIMURIUM, Strain/Indicator: TA97, Metabolic Activation: HAMSTER, LIVER, S-9, AROCLOR 1254 (10 OR 30%), Method: PREINCUBATION); “inactive; negative” (Test System: AMES SALMONELLA TYPHIMURIUM, Strain/Indicator: TA97, Metabolic Activation: NONE, Method: PREINCUBATION); “inactive; negative” (Test System: AMES SALMONELLA TYPHIMURIUM, Strain/Indicator: TA97, Metabolic Activation: RAT, LIVER, S-9, AROCLOR 1254 (10 OR 30%), Method: PREINCUBATION); “inactive; negative” (Test System: AMES SALMONELLA TYPHIMURIUM, Strain/Indicator: TA98, Metabolic Activation: HAMSTER, LIVER, S-9, AROCLOR 1254 (10 OR 30%), Method: PREINCUBATION); “inactive; negative” (Test System: AMES SALMONELLA TYPHIMURIUM, Strain/Indicator: TA98, Metabolic Activation: NONE, Method: PREINCUBATION); “inactive; negative” (Test System: AMES SALMONELLA TYPHIMURIUM, Strain/Indicator: TA98, Metabolic Activation: RAT, LIVER, S-9, AROCLOR 1254 (10 OR 30%), Method: PREINCUBATION). For the same compound, the mutagenic call is “inactive; negative” (Test System: AMES SALMONELLA TYPHIMURIUM, Strain/Indicator: TA100, Metabolic Activation: HAMSTER, LIVER, S-9, AROCLOR 1254 (10 OR 30%), Method: PREINCUBATION); “inactive; negative” under setting [11]; “inactive; negative” (Test System: AMES SALMONELLA TYPHIMURIUM, Strain/Indicator: TA100, Metabolic Activation: RAT, LIVER, S-9, AROCLOR 1254 (10 OR 30%), Method: PREINCUBATION); “inactive; negative” (Test System: AMES SALMONELLA TYPHIMURIUM, Strain/Indicator: TA1535, Metabolic Activation: HAMSTER, LIVER, S-9, AROCLOR 1254 (10 OR 30%), Method: PREINCUBATION); “inactive; negative” under setting [12]; “inactive; negative” (Test System: AMES SALMONELLA TYPHIMURIUM, Strain/Indicator: TA1535, Metabolic Activation: RAT, LIVER, S-9, AROCLOR 1254 (10 OR 30%), Method: PREINCUBATION). The mutagenic call is, setting by setting: (Test System: AMES SALMONELLA TYPHIMURIUM, Strain/Indicator: TA1537, Metabolic Activation: HAMSTER, LIVER, S-9, AROCLOR 1254 (10 OR 30%), Method: PREINCUBATION) “inactive; negative”; (Test System: AMES SALMONELLA TYPHIMURIUM, Strain/Indicator: TA1537, Metabolic Activation: NONE, Method: PREINCUBATION) “inactive; negative”; (Test System: AMES SALMONELLA TYPHIMURIUM, Strain/Indicator: TA1537, Metabolic Activation: RAT, LIVER, S-9, AROCLOR 1254 (10 OR 30%), Method: PREINCUBATION) “inactive; negative”.

In the case of `CSCC[C@H](NC(=O)[C@@H](N)Cc1c[nH]c2ccccc12)C(=O)N[C@@H](CC(=O)O)C(=O)N[C@@H](Cc1ccccc1)C(N)=O`, the mutagenic call runs as follows: under setting [1], “inactive; negative”; under setting [2], “inactive; negative”; under setting [3], “inactive; negative”; under setting [4], “inactive; negative”; under setting [5], “inactive; negative”; under setting [6], “inactive; negative”. Besides, the mutagenic call reads like this: under setting [7], “inactive; negative”; under setting [8], “inactive; negative”.

In the case of `C=CCc1cc(OC)c2c(c1)OCO2`, the mutagenic call (Test System: UDS RAT HEPATOCYTES, Strain/Indicator: THY INCORP, Metabolic Activation: NONE, Method: LIQUID SCINTILLATION COUNTING) was “inactive; negative”.

With `CS(=O)(=O)c1ccc(Cl)cc1`, the mutagenic call runs as follows: under setting [1], “inactive; negative”; under setting [2], “inactive; negative”; under setting [3], “inactive; negative”; under setting [4], “inactive; negative”; under setting [5], “inactive; negative”; under setting [6], “inactive; negative”. Further, the mutagenic call reads like this: under setting [7], “inactive; negative”; under setting [8], “inactive; negative”; under setting [9], “inactive; negative”; under setting [10], “inactive; negative”.
